MIC, Ratio and Activity data for nine compounds are collected here from ChEMBL document CHEMBL5344406, “1,2,3-Triazole-containing hybrids with potential antibacterial activity against ESKAPE pathogens” (2022).

Molecules are shown by their SMILES. ≈ marks a conversion by molar mass, not a printed value.

What all share (format): functional
In experiment [1] the test system is Staphylococcus aureus. Kind of experiment: Antibacterial activity against Staphylococcus aureus clinical isolate assessed as bacterial growth inhibition incubated for 24 hrs by disk diffusion method.
The test system of experiment [2] is Escherichia coli. Kind of experiment: Antibacterial activity against Escherichia coli clinical isolate assessed as bacterial growth inhibition incubated for 24 hrs by disk diffusion method.
Experiment [3] deals with Staphylococcus aureus. Kind of experiment: Potency index, ratio of Clarithromycin MIC to test compound MIC for antibacterial activity against erythromycin-susceptible Staphylococcus aureus ATCC 25923 assessed as bacterial growth inhibition by standard dilution assay.
Experiment [4] relates to Staphylococcus aureus. Kind of experiment: Antibacterial activity against methicillin-resistant Staphylococcus aureus ATCC 43300 assessed as bacterial growth inhibition by standard dilution assay.
Experiment [5] deals with Staphylococcus aureus. Kind of experiment: Antibacterial activity against erythromycin-susceptible Staphylococcus aureus ATCC 25923 assessed as bacterial growth inhibition by standard dilution assay.
Experiment [6] relates to Staphylococcus aureus. Kind of experiment: Potency index, ratio of Azithromycin MIC to test compound MIC for antibacterial activity against erythromycin-susceptible Staphylococcus aureus ATCC 25923 assessed as bacterial growth inhibition by standard dilution assay.
For experiment [7], the system named is Staphylococcus aureus. Kind of experiment: Antibacterial activity against erythromycin-resistant Staphylococcus aureus clinical isolate assessed as bacterial growth inhibition by standard dilution assay.
For experiment [8], the system named is Staphylococcus aureus. Kind of experiment: Antibacterial activity against penicillin-resistant Staphylococcus aureus ATCC 31007 assessed as bacterial growth inhibition by standard dilution assay.
Experiment [9] deals with Klebsiella pneumoniae. Kind of experiment: Antibacterial activity against erythromycin-resistant Klebsiella pneumoniae ATCC 700603 assessed as bacterial growth inhibition by standard dilution assay.
The test system of experiment [10] is Escherichia coli. Kind of experiment: Antibacterial activity against multidrug-resistant Escherichia coli assessed as bacterial growth inhibition incubated for 24 hrs by […] method.
Experiment [11] has as its system Staphylococcus aureus. Kind of experiment: Antibacterial activity against methicillin-resistant Staphylococcus aureus ATCC 43300 infected in neutropenic mouse model of thigh infection assessed as reduction in bacterial load at 20 mg/kg, iv measured after 24 hrs by colony counting method.
The subject of experiment [12] is Klebsiella pneumoniae. Kind of experiment: Antibacterial activity against Klebsiella pneumoniae clinical isolate assessed as bacterial growth inhibition by disk diffusion method.
In experiment [13] the test system is Staphylococcus aureus. Kind of experiment: Antibacterial activity against Staphylococcus aureus clinical isolate assessed as bacterial growth inhibition by disk diffusion method.
The subject of the next experiment is Serratia marcescens. Kind of experiment: Antibacterial activity against Serratia marcescens clinical isolate assessed as bacterial growth inhibition by disk diffusion method.
The next experiment deals with Pseudomonas putida. Kind of experiment: Antibacterial activity against Pseudomonas putida clinical isolate assessed as bacterial growth inhibition by disk diffusion method.
In experiment [14] the test system is Escherichia coli. Kind of experiment: Antibacterial activity against Escherichia coli clinical isolate assessed as bacterial growth inhibition by disk diffusion method.
Experiment [15] concerns Escherichia coli. Kind of experiment: Antibacterial activity against Escherichia coli ATCC 25922 assessed as bacterial growth inhibition by broth microdilution method.
Another experiment deals with Salmonella enterica. Kind of experiment: Antibacterial activity against Salmonella enterica assessed as bacterial growth inhibition incubated for 24 hrs by serial dilution method.
Experiment [16] has as its system Escherichia coli. Kind of experiment: Antibacterial activity against Escherichia coli MTCC 1687 assessed as bacterial growth inhibition by serial dilution method.
Experiment [17] deals with Pseudomonas aeruginosa. Kind of experiment: Antibacterial activity against Pseudomonas aeruginosa MTCC 1688 assessed as bacterial growth inhibition by broth microdilution method.
The subject of experiment [18] is Staphylococcus aureus. Kind of experiment: Antibacterial activity against Staphylococcus aureus MTCC 96 assessed as bacterial growth inhibition by broth microdilution method.
In experiment [19] the test system is Staphylococcus aureus. Kind of experiment: Antibacterial activity against Staphylococcus aureus assessed as bacterial growth inhibition by agar well diffusion method.
The subject of experiment [20] is Staphylococcus aureus. Kind of experiment: Antibacterial activity against Staphylococcus aureus MTCC 737 assessed as bacterial growth inhibition by serial dilution method.
Experiment [21] relates to Bacillus subtilis. Kind of experiment: Antibacterial activity against Bacillus subtilis assessed as bacterial growth inhibition by serial dilution method.
Experiment [22] concerns Bacillus subtilis. Kind of experiment: Antibacterial activity against Bacillus subtilis MTCC 441 assessed as bacterial growth inhibition incubated for 24 hrs by serial dilution method.
Experiment [23] has as its system Bacillus subtilis. Kind of experiment: Antibacterial activity against Bacillus subtilis assessed as bacterial growth inhibition incubated for 24 hrs by serial dilution method.
Experiment [24] concerns Staphylococcus epidermidis. Kind of experiment: Antibacterial activity against Staphylococcus epidermidis assessed as bacterial growth inhibition by serial dilution method.
Experiment [25] concerns Pseudomonas aeruginosa. Kind of experiment: Antibacterial activity against Pseudomonas aeruginosa assessed as bacterial growth inhibition.
For experiment [26], the system named is Escherichia coli. Kind of experiment: Antibacterial activity against Escherichia coli assessed as bacterial growth inhibition by serial dilution method.
Experiment [27] relates to Bacillus subtilis. Kind of experiment: Antibacterial activity against Bacillus subtilis assessed as bacterial growth inhibition by agar well diffusion method.
In experiment [28] the test system is Klebsiella pneumoniae. Kind of experiment: Antibacterial activity against Klebsiella pneumoniae NCDC 138 assessed as bacterial growth inhibition incubated for 24 hrs by serial dilution method.
A further experiment has as its system Streptococcus pyogenes. Kind of experiment: Antibacterial activity against Streptococcus pyogenes MTCC 442 assessed as bacterial growth inhibition by broth microdilution method.
Experiment [29] concerns Staphylococcus aureus. Kind of experiment: Antibacterial activity against Staphylococcus aureus ATCC 25923 assessed as bacterial growth inhibition by broth microdilution method.
Experiment [30] has as its system Escherichia coli. Kind of experiment: Antibacterial activity against Escherichia coli MTCC 443 assessed as bacterial growth inhibition by broth microdilution method.
For experiment [31], the system named is Bacillus subtilis. Kind of experiment: Antibacterial activity against Bacillus subtilis ATCC 6633 assessed as bacterial growth inhibition incubated for 18 to 24 hrs by turbidimetry. To be noted: time 18-24 hrs.
The test system of experiment [32] is Bacillus subtilis. Kind of experiment: Antibacterial activity against Bacillus subtilis assessed as bacterial growth inhibition by broth microdilution method.
The test system of experiment [33] is Staphylococcus aureus. Kind of experiment: Antibacterial activity against Staphylococcus aureus assessed as bacterial growth inhibition by broth microdilution method.
Experiment [34] has as its system Staphylococcus aureus. Kind of experiment: Antibacterial activity against Staphylococcus aureus ATCC 43300 assessed as bacterial growth inhibition measured for 5 to 20 mins by broth dilution method. To be noted: time 5-20 min.
Experiment [35] deals with Escherichia coli. Kind of experiment: Antibacterial activity against Escherichia coli assessed as bacterial growth inhibition by broth microdilution method.
Experiment [36] has as its system Pseudomonas aeruginosa. Kind of experiment: Antibacterial activity against Pseudomonas aeruginosa ATCC 10145 assessed as bacterial growth inhibition measured for 5 to 20 mins by broth dilution method. To be noted: time 5-20 min.
Experiment [37] relates to Pseudomonas aeruginosa. Kind of experiment: Antibacterial activity against Pseudomonas aeruginosa assessed as bacterial growth inhibition by broth microdilution method.

`Cc1ccccc1-n1cc(Cn2c3ccccc3c(=O)c3ccccc32)nn1`: the MIC with Staphylococcus aureus [1] and in the experiment on Escherichia coli [2] was 10.1 µg/mL (≈ 27.6 µM) throughout.
For the compound `CCCCc1ccc(-c2cn(CC(=O)NNC(=O)O[C@H]3C[C@H](C)[C@@H](O[C@@H]4[C@H](C)[C@@H](O[C@H]5O[C@@H](C)C[C@@H](N(C)C)[C@@H]5O)[C@@](C)(O)C[C@@H](C)CN(C)[C@H](C)[C@H]5OC(=O)O[C@]5(C)[C@H](CC)OC(=O)[C@@H]4C)C[C@@]3(C)OC)nn2)cc1`, the Ratio in the experiment on Staphylococcus aureus [3] and in the experiment with Staphylococcus aureus [6] was more than 32 each time. Also, the minimum inhibitory concentration (MIC) in the experiment with Staphylococcus aureus [4] is 2 µg/mL (≈ 1.87 µM); in the experiment on Staphylococcus aureus [5], 2 µg/mL (≈ 1.87 µM); in the experiment with Staphylococcus aureus [7] it was not below 128 µg/mL; in the experiment with Staphylococcus aureus [8] it was 2 µg/mL (≈ 1.87 µM); in the experiment with Klebsiella pneumoniae [9], not below 128 µg/mL.
In the case of `Clc1cccc(Cn2cc(COc3ccc(-c4nc5ccccc5s4)cc3)nn2)c1`, the MIC in the experiment with Escherichia coli [10] was found to be 8.02 µg/mL (≈ 18.5 µM).
For `C=C[C@]1(C)C[C@@H](OC(=O)CSCCN(CC)CC)[C@]2(C)[C@H](C)CC[C@]3(CCC(=O)[C@H]32)[C@@H](C)[C@@H]1O` [TIAMULIN], in the experiment with Staphylococcus aureus [11], the Activity was -0.57 log10CFU/ml.
Regarding `CCCCCc1ccc(-c2cn(CC(=O)NNC(=O)O[C@H]3C[C@H](C)[C@@H](O[C@@H]4[C@H](C)[C@@H](O[C@H]5O[C@@H](C)C[C@@H](N(C)C)[C@@H]5O)[C@@](C)(O)C[C@@H](C)CN(C)[C@H](C)[C@H]5OC(=O)O[C@]5(C)[C@H](CC)OC(=O)[C@@H]4C)C[C@@]3(C)OC)nn2)cc1`, the Ratio with Staphylococcus aureus [3] and in the experiment on Staphylococcus aureus [6] was more than 32 throughout. In addition, the MIC was 2 µg/mL (≈ 1.84 µM) with Staphylococcus aureus [4]; 2 µg/mL (≈ 1.84 µM) with Staphylococcus aureus [5]; not below 128 µg/mL in the experiment with Staphylococcus aureus [7]; 2 µg/mL (≈ 1.84 µM) in the experiment with Staphylococcus aureus [8]; not below 128 µg/mL in the experiment with Klebsiella pneumoniae [9].
As to `Cc1ccc(NC(=O)Cn2cc(Cn3c4ccccc4c(=O)c4cc(C)ccc43)nn2)cc1`, the MIC in the experiment on Klebsiella pneumoniae [12], in the experiment on Staphylococcus aureus [13], with Serratia marcescens, in the experiment with Pseudomonas putida and in the experiment on Escherichia coli [14] was 12.3 µg/mL (≈ 28.1 µM) in each case.
Regarding `O=C(O)c1cn(C2CC2)c2cc(N3CCNCC3)c(F)cc2c1=O` [CIPROFLOXACIN], the MIC was determined as 11 µg/mL (≈ 33.2 µM) in the experiment on Escherichia coli [15]; 6.25 µg/mL (≈ 18.9 µM) in the experiment on Salmonella enterica; 12.5 µg/mL (≈ 37.7 µM) in the experiment on Escherichia coli [16]; 24.9 µg/mL (≈ 75.1 µM) in the experiment on Pseudomonas aeruginosa [17]; 24.9 µg/mL (≈ 75.1 µM) in the experiment with Staphylococcus aureus [18]; 0.5 µg/mL (≈ 1.51 µM) with Staphylococcus aureus [19]. The MIC in the experiment with Staphylococcus aureus [20] was 12.5 µg/mL (≈ 37.7 µM); in the experiment with Bacillus subtilis [21], 25 µg/mL (≈ 75.4 µM); in the experiment with Bacillus subtilis [22], 6.25 µg/mL (≈ 18.9 µM); in the experiment on Bacillus subtilis [23], 6.25 µg/mL (≈ 18.9 µM); in [24] it was 25 µg/mL (≈ 75.4 µM); in the experiment with Pseudomonas aeruginosa [25], 1.56 µg/mL (≈ 4.71 µM). Further, the MIC in the experiment on Escherichia coli [26] was determined as 25 µg/mL (≈ 75.4 µM); in the experiment on Bacillus subtilis [27], 0.5 µg/mL (≈ 1.51 µM); in the experiment on Klebsiella pneumoniae [28] it was 6.25 µg/mL (≈ 18.9 µM); in the experiment with Streptococcus pyogenes, 24.9 µg/mL (≈ 75.1 µM); with Staphylococcus aureus [29], 12 µg/mL (≈ 36.2 µM); in the experiment with Escherichia coli [30], 24.9 µg/mL (≈ 75.1 µM). Also, the MIC in the experiment with Bacillus subtilis [31] was 0.125 µg/mL (≈ 0.377 µM).
Take `Cc1ccc2c(c1)c(=O)c1ccccc1n2Cc1cn(CC(=O)Nc2ccccc2C)nn1`: the minimal inhibitory concentration (MIC) in the experiment with Klebsiella pneumoniae [12], in the experiment with Staphylococcus aureus [13], in the experiment on Serratia marcescens, in the experiment with Pseudomonas putida and in the experiment on Escherichia coli [14] was 12.3 µg/mL (≈ 28.1 µM) in each case.
As to `CC1(C)S[C@@H]2[C@H](NC(=O)[C@H](N)c3ccccc3)C(=O)N2[C@H]1C(=O)O` [AMPICILLIN], the MIC was 4 µg/mL (≈ 11.4 µM) in the experiment with Bacillus subtilis [32]; 4 µg/mL (≈ 11.4 µM) in the experiment on Staphylococcus aureus [33]; 2.5 µg/mL (≈ 7.15 µM) in the experiment on Staphylococcus aureus [34]; 4 µg/mL (≈ 11.4 µM) in the experiment with Escherichia coli [35]; 5 µg/mL (≈ 14.3 µM) in the experiment on Pseudomonas aeruginosa [36]; 1 µg/mL (≈ 2.86 µM) in the experiment on Pseudomonas aeruginosa [37].
